Key:
Format in all cases: in vivo
Setaria faberi (SETFA) [1] = assay: Pre-emergence Test (Table B1), SETFA; details: evaluated after 13 days
Zea mays (ZEAMX) [2] = assay: Post-emergence Test (Table B2), ZEAMX; set-up: key: 5-point damage scale: 5=81-100%, 4=61-80%, 3=41-60%, 2=21-40%, 1=0-20%; details: evaluated after 13 days
Procedure, shortened: (§1)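 Evaluation 13 days post-spray gives percent plant damage, reported in five 20% bands (1=0-20% up to 5=81-100%). Test species, sown in soil and kept at 24/16 °C day/night with 14 h light, are treated with compound in 50:50 acetone/water plus 0.5% Tween 20, applied per g/ha.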

[3] = test system: Echinochloa crus-galli (ECHCG); assay: Post-emergence Test (Table B2), ECHCG; set-up: key: 5-point damage scale: 5=81-100%, 4=61-80%, 3=41-60%, 2=21-40%, 1=0-20%; details: evaluated after 13 days
Procedure, shortened: as §1

[4] = test system: Echinochloa crus-galli (ECHCG); assay: Pre-emergence Test (Table B1), ECHCG; details: evaluated after 13 days
[5] = test system: Ipomoea hederacea (IPOHE); assay: Pre-emergence Test (Table B1), IPOHE; details: evaluated after 13 days
Zea mays (ZEAMX) [6] = assay: Pre-emergence Test (Table B1), ZEAMX; details: evaluated after 13 days
[7] = test system: Amaranthus retoflexus (AMARE); assay: Pre-emergence Test (Table B1), AMARE; details: evaluated after 13 days
[8] = test system: Amaranthus palmeri (AMAPA); assay: Pre-emergence Test (Table B1), AMAPA; details: evaluated after 13 days
[9] = test system: Ipomoea hederacea (IPOHE); assay: Post-emergence Test (Table B2), IPOHE; set-up: key: five-point scale: 5=81-100%, 4=61-80%, 3=41-60%, 2=21-40%, 1=0-20% damage; details: evaluated after 13 days
Method: (§2) Seeds of a variety of test species are sown in standard soil in pots (Ipomoea hederacea (IPOHE), Zea mays (ZEAMX), Echinochloa crus-galli (ECHCG), Amaranthus palmeri (AMAPA), (Amaranthus retoflexus (AMARE), and (Setaria faberi (SETFA)). After 8 days cultivation under controlled conditions in a glasshouse (at 24° C./16° C., day/night; 14 hours light; 65% humidity), the plants are sprayed with an aqueous spray solution derived from the formulation of the technical active ingredient in acetone/water (50:50) solution containing 0.5% Tween 20 (polyoxyethelyene sorbitan monolaurate, CAS RN 9005-64-5). Rate of application is shown in g/ha in the tables below. The test plants are then grown in a glasshouse under controlled conditions in a glasshouse (at 24° C./16° C., day/night; 14 hours light; 65% humidity) and watered twice daily. After 13 days the test is evaluated for the percentage damage caused to the plant. The biological activities are shown in the following table on a five-point scale (5=81-100%; 4=61-80%; 3=41-60%; 2=21-40%; 1=0-20%; -=not tested).

[10] = test system: Amaranthus retoflexus (AMARE); assay: Post-emergence Test (Table B2), AMARE; set-up: key: five-point scale: 5=81-100%, 4=61-80%, 3=41-60%, 2=21-40%, 1=0-20% damage; details: rate 1000 g/Ha, evaluated after 13 days
Method: as §2

Setaria faberi (SETFA) [11] = assay: Post-emergence Test (Table B2), SETFA; set-up: key: five-point scale: 5=81-100%, 4=61-80%, 3=41-60%, 2=21-40%, 1=0-20% damage; details: rate 250 g/Ha, evaluated after 13 days
Method: as §2

[12] = test system: Amaranthus palmeri (AMAPA); assay: Post-emergence Test (Table B2), AMAPA; set-up: key: five-point scale: 5=81-100%, 4=61-80%, 3=41-60%, 2=21-40%, 1=0-20% damage; details: rate 250 g/Ha, evaluated after 13 days
Procedure, shortened: as §1

CCn1c(Cc2ccc(C)nn2)cc(=O)c(C(=O)O)c1-c1ccc(Cl)c(Cl)c1 [Compound 139, 2-(3,4-dichlorophenyl)-1-ethyl-6-[(6-methylpyridazin-3-yl)methyl]-4-oxo-pyridine-3-carboxylic acid]
0: Pre-emergence Test, percentage damage caused to the plant (five-point scale), SETFA (Setaria faberi (SETFA) [1]; Rate 250 g/Ha) | percentage damage caused to the plant, ZEAMX (Zea mays (ZEAMX) [2]; rate 250 g/Ha) | percentage damage caused to the plant, ECHCG ([3]; rate 250 g/Ha)

CCn1c(Cc2ccc(Cl)cc2F)cc(=O)c(C(=O)O)c1-c1ccc(Cl)c(Cl)c1 [Compound 79, 6-[(4-chloro-2-fluoro-phenyl)methyl]-2-(3,4-dichlorophenyl)-1-ethyl-4-oxo-pyridine-3-carboxylic acid]
0: Pre-emergence Test, percentage damage caused to the plant (five-point scale), ECHCG ([4]; Rate 1000 g/Ha) | Pre-emergence Test, percentage damage caused to the plant (five-point scale), IPOHE ([5]; Rate 1000 g/Ha) | Pre-emergence Test, percentage damage caused to the plant (five-point scale), ZEAMX (Zea mays (ZEAMX) [6]; Rate 1000 g/Ha) | Pre-emergence Test, percentage damage caused to the plant (five-point scale), SETFA (Setaria faberi (SETFA) [1]; Rate 1000 g/Ha) | Pre-emergence Test, percentage damage caused to the plant (five-point scale), AMARE ([7]; Rate 1000 g/Ha) | Pre-emergence Test, percentage damage caused to the plant (five-point scale), AMAPA ([8]; Rate 1000 g/Ha)

CCn1c(Cc2ccc(O)nn2)cc(=O)c(C(=O)O)c1-c1ccc(Cl)c(Cl)c1 [Compound 107, 2-(3,4-dichlorophenyl)-1-ethyl-6-[(6-hydroxypyridazin-3-yl)methyl]-4-oxo-pyridine-3-carboxylic acid]
0: Pre-emergence Test, percentage damage caused to the plant (five-point scale), ECHCG ([4]; Rate 1000 g/Ha) | Pre-emergence Test, percentage damage caused to the plant (five-point scale), IPOHE ([5]; Rate 1000 g/Ha) | Pre-emergence Test, percentage damage caused to the plant (five-point scale), ZEAMX (Zea mays (ZEAMX) [6]; Rate 1000 g/Ha) | percentage damage caused to the plant, IPOHE ([9]; rate 1000 g/Ha) | Pre-emergence Test, percentage damage caused to the plant (five-point scale), SETFA (Setaria faberi (SETFA) [1]; Rate 1000 g/Ha) | Pre-emergence Test, percentage damage caused to the plant (five-point scale), AMARE ([7]; Rate 1000 g/Ha) | percentage damage caused to the plant, ZEAMX (Zea mays (ZEAMX) [2]; rate 1000 g/Ha) | Pre-emergence Test, percentage damage caused to the plant (five-point scale), AMAPA ([8]; Rate 1000 g/Ha) | percentage damage caused to the plant, AMARE [10] | percentage damage caused to the plant, ECHCG ([3]; rate 1000 g/Ha)

CCn1c(Cc2nccnc2Cl)cc(=O)c(C(=O)O)c1-c1ccc(Cl)c(Cl)c1 [Compound 144, 6-[(3-chloropyrazin-2-yl)methyl]-2-(3,4-dichlorophenyl)-1-ethyl-4-oxo-pyridine-3-carboxylic acid]
0: Pre-emergence Test, percentage damage caused to the plant (five-point scale), ECHCG ([4]; Rate 250 g/Ha) | Pre-emergence Test, percentage damage caused to the plant (five-point scale), IPOHE ([5]; Rate 250 g/Ha) | Pre-emergence Test, percentage damage caused to the plant (five-point scale), ZEAMX (Zea mays (ZEAMX) [6]; Rate 250 g/Ha) | Pre-emergence Test, percentage damage caused to the plant (five-point scale), SETFA (Setaria faberi (SETFA) [1]; Rate 250 g/Ha) | Pre-emergence Test, percentage damage caused to the plant (five-point scale), AMAPA ([8]; Rate 250 g/Ha)

CCn1c(Cc2ccn[nH]c2=O)cc(=O)c(C(=O)O)c1-c1ccc(Cl)c(Cl)c1 [Compound 142, 2-(3,4-dichlorophenyl)-1-ethyl-4-oxo-6-[(6-oxo-1H-pyridazin-5-yl)methyl]pyridine-3-carboxylic acid]
0: Pre-emergence Test, percentage damage caused to the plant (five-point scale), ECHCG ([4]; Rate 250 g/Ha) | Pre-emergence Test, percentage damage caused to the plant (five-point scale), ZEAMX (Zea mays (ZEAMX) [6]; Rate 250 g/Ha) | Pre-emergence Test, percentage damage caused to the plant (five-point scale), SETFA (Setaria faberi (SETFA) [1]; Rate 250 g/Ha)

CCn1c(Cc2cccc(OC)n2)cc(=O)c(C(=O)O)c1-c1ccc(Cl)c(Cl)c1 [Compound 60, 2-(3,4-dichlorophenyl)-1-ethyl-6-[(6-methoxy-2-pyridyl)methyl]-4-oxo-pyridine-3-carboxylic acid]
0: Pre-emergence Test, percentage damage caused to the plant (five-point scale), ZEAMX (Zea mays (ZEAMX) [6]; Rate 250 g/Ha) | Pre-emergence Test, percentage damage caused to the plant (five-point scale), SETFA (Setaria faberi (SETFA) [1]; Rate 250 g/Ha)

CCn1c(Cc2ccccc2C(F)(F)F)cc(=O)c(C(=O)O)c1-c1ccc(Cl)c(Cl)c1 [Compound 11, 2-(3,4-dichlorophenyl)-1-ethyl-4-oxo-6-[[2-(trifluoromethyl)phenyl]methyl]pyridine-3-carboxylic acid]
0: Pre-emergence Test, percentage damage caused to the plant (five-point scale), ECHCG ([4]; Rate 250 g/Ha) | Pre-emergence Test, percentage damage caused to the plant (five-point scale), IPOHE ([5]; Rate 250 g/Ha) | percentage damage caused to the plant, SETFA (Setaria faberi (SETFA) [11]) | Pre-emergence Test, percentage damage caused to the plant (five-point scale), SETFA (Setaria faberi (SETFA) [1]; Rate 250 g/Ha) | Pre-emergence Test, percentage damage caused to the plant (five-point scale), AMARE ([7]; Rate 250 g/Ha) | percentage damage caused to the plant, ZEAMX (Zea mays (ZEAMX) [2]; rate 250 g/Ha) | percentage damage caused to the plant, ECHCG ([3]; rate 250 g/Ha)

CCn1c(Cc2cnc3ccccc3n2)cc(=O)c(C(=O)O)c1-c1ccc(Cl)c(Cl)c1 [Compound 145, 2-(3,4-dichlorophenyl)-1-ethyl-4-oxo-6-(quinoxalin-2-ylmethyl)pyridine-3-carboxylic acid]
0: Pre-emergence Test, percentage damage caused to the plant (five-point scale), IPOHE ([5]; Rate 250 g/Ha) | Pre-emergence Test, percentage damage caused to the plant (five-point scale), ZEAMX (Zea mays (ZEAMX) [6]; Rate 250 g/Ha) | Pre-emergence Test, percentage damage caused to the plant (five-point scale), SETFA (Setaria faberi (SETFA) [1]; Rate 250 g/Ha) | Pre-emergence Test, percentage damage caused to the plant (five-point scale), AMARE ([7]; Rate 250 g/Ha)

CCn1c(Cc2cccc(Cl)n2)cc(=O)c(C(=O)O)c1-c1ccc(OC(C)C)c(Cl)c1 [Compound 132, 2-(3-chloro-4-isopropoxy-phenyl)-6-[(6-chloro-2-pyridyl)methyl]-1-ethyl-4-oxo-pyridine-3-carboxylic acid]
0: Pre-emergence Test, percentage damage caused to the plant (five-point scale), ECHCG ([4]; Rate 250 g/Ha) | Pre-emergence Test, percentage damage caused to the plant (five-point scale), IPOHE ([5]; Rate 250 g/Ha) | Pre-emergence Test, percentage damage caused to the plant (five-point scale), ZEAMX (Zea mays (ZEAMX) [6]; Rate 250 g/Ha) | percentage damage caused to the plant, IPOHE ([9]; rate 250 g/Ha) | Pre-emergence Test, percentage damage caused to the plant (five-point scale), AMARE ([7]; Rate 250 g/Ha) | percentage damage caused to the plant, AMAPA [12]

CCn1c(Cc2ccc(Cl)cc2)cc(=O)c(C(=O)O)c1-c1ccc(Cl)c(Cl)c1 [Compound 7, 6-[(4-chlorophenyl)methyl]-2-(3,4-dichlorophenyl)-1-ethyl-4-oxo-pyridine-3-carboxylic acid]
0: Pre-emergence Test, percentage damage caused to the plant (five-point scale), ECHCG ([4]; Rate 1000 g/Ha) | Pre-emergence Test, percentage damage caused to the plant (five-point scale), IPOHE ([5]; Rate 1000 g/Ha) | Pre-emergence Test, percentage damage caused to the plant (five-point scale), ZEAMX (Zea mays (ZEAMX) [6]; Rate 1000 g/Ha) | Pre-emergence Test, percentage damage caused to the plant (five-point scale), SETFA (Setaria faberi (SETFA) [1]; Rate 1000 g/Ha) | Pre-emergence Test, percentage damage caused to the plant (five-point scale), AMARE ([7]; Rate 1000 g/Ha)

Reference: patent US20260013501A1, “HERBICIDAL DERIVATIVES” (SYNGENTA CROP PROTECTION AG, priority 2022, published 2026)
